Experimental data as given in patent US6461997B1, “Triazole sulfones having herbicidal activity” (Monsanto Technology LLC, priority 1999, dated 2002).

What was measured:
AMARE (redroot pigweed) = experiment: Pre-emergence herbicidal activity, warm season; assay type: in vivo, Amaranthus retroflexus; details: GR80 = lowest tested rate (300, 100, 30, 10 g/ha) with 80% or greater inhibition; approx. 14 days after treating; 30/21° C.
Procedure, shortened: (§1)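 Seeds sown in sterilised fertilised topsoil received surface-applied compound in 50:50 acetone/water, typically at 300, 100, 30 and 10 g/ha, then greenhouse-grown at 30/21° C (warm-season species) or 18/13° C (cool-season species). Percent inhibition versus untreated plants was scored at about 14 days, giving GR80; an asterisk marks activity short of 80% at the top rate.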

[1] = tested on: BRAPP (broadleaf signalgrass); experiment: Pre-emergence herbicidal activity, warm season; assay type: in vivo, Brachiaria platyphylla; details: GR80 = lowest tested rate (300, 100, 30, 10 g/ha) with 80% or greater inhibition; approx. 14 days after treating; 30/21° C.
Procedure, shortened: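 Activity is expressed as the rate giving 80% inhibition, with 300, 100, 30 and 10 g/ha typically tested. An asterisk marks activity short of 80% at the top rate. Warm-season grasses were held at 30/21 °C; cool-season blackgrass and wild buckwheat at 18/13 °C; scoring at about 14 days.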

STEME (common chickweed) = experiment: Pre-emergence herbicidal activity, cool season; assay type: in vivo, Stellaria media; details: lowest tested rate with 80% or greater inhibition; rates 300, 100, 30, 10 g/ha; about 14 days
Procedure, shortened: as §1

ECHCG (barnyardgrass) = experiment: Pre-plant incorporated (PPI) herbicidal activity, warm season; assay type: in vivo, Echinochloa crus-galli; details: for inhibition at 10 g/ha / inhibition at 30 g/ha / inhibition at 100 g/ha / inhibition at 300 g/ha / inhibition at 900 g/ha: Echinochloa crus-galli, PPI application, read-out: Percent inhibition ECHCG; for PPI activity GR80, ECHCG: pre-plant incorporated, lowest tested rate with 80% or greater inhibition, about 14 days
Procedure, shortened: (§2)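 Herbicidal effect is given as percent inhibition compared with untreated pots after roughly 14 days. The compound is incorporated into the cover soil layer rather than sprayed on the surface. Temperature regime is 30/21° C for warm-season and 18/13° C for cool-season species.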

[2] = tested on: BRAPP (broadleaf signalgrass); experiment: as above; assay type: in vivo, Brachiaria platyphylla; details: for inhibition at 10 g/ha / inhibition at 30 g/ha / inhibition at 100 g/ha / inhibition at 300 g/ha / inhibition at 900 g/ha: Urochloa platyphylla, PPI application, read-out: Percent inhibition BRAPP; for PPI activity GR80, BRAPP: pre-plant incorporated, lowest tested rate with 80% or greater inhibition, about 14 days
Procedure, shortened: as §2

SASKR (russian thistle) = experiment: Pre-plant incorporated (PPI) herbicidal activity, cool season; assay type: in vivo, Salsola kali; details: for inhibition at 10 g/ha / inhibition at 30 g/ha / inhibition at 100 g/ha / inhibition at 300 g/ha / inhibition at 900 g/ha: Salsola kali, weed, PPI application, read-out: Percent inhibition SASKR; for PPI activity GR80, SASKR: pre-plant incorporated, lowest tested rate with 80% or greater inhibition, about 14 days
Procedure, shortened: as §2

[3] = tested on: LAMPU (purple deadnettle); experiment: as above; assay type: in vivo, Lamium purpureum; details: for PPI activity GR80, LAMPU: pre-plant incorporated, lowest tested rate with 80% or greater inhibition, about 14 days
Procedure, shortened: as §2

[4] = Lamium purpureum, weed, PPI application, read-out: Percent inhibition LAMPU

SMILES | Pre-emergence activity (GR80) AMARE (AMARE (redroot pigweed)) | Pre-emergence activity (GR80) BRAPP [1] [g/ha] | Pre-emergence activity GR80, STEME (STEME (common chickweed)) [g/ha] | inhibition at 10 g/ha (ECHCG (barnyardgrass)) [%] | inhibition at 30 g/ha (ECHCG (barnyardgrass)) [%] | inhibition at 100 g/ha (ECHCG (barnyardgrass)) [%] | inhibition at 300 g/ha (ECHCG (barnyardgrass)) [%] | inhibition at 900 g/ha (ECHCG (barnyardgrass)) [%] | PPI activity GR80, ECHCG (ECHCG (barnyardgrass)) [g/ha] | inhibition at 10 g/ha [2] [%] | inhibition at 30 g/ha [2] [%] | inhibition at 100 g/ha [2] [%] | inhibition at 300 g/ha [2] [%] | inhibition at 900 g/ha [2] [%] | PPI activity GR80, BRAPP [2] [g/ha] | inhibition at 10 g/ha (SASKR (russian thistle)) [%] | inhibition at 30 g/ha (SASKR (russian thistle)) [%] | inhibition at 100 g/ha (SASKR (russian thistle)) [%] | inhibition at 300 g/ha (SASKR (russian thistle)) [%] | inhibition at 900 g/ha (SASKR (russian thistle)) [%] | also measured
C=CCC(F)(F)S(=O)(=O)c1ncn(C(=O)N(CC)CC)n1 [Example 17, 1-(N,N-diethylcarbamoyl)-3-[(1,1-difluoro-3-butenyl)sulfonyl]-1,2,4-triazole] | 300 g/ha | 300 | 100 | 40 | 95 | 100 | 100 | 100 | 30 | 0 | 0 | 50 | 100 | 100 | 100 | 0 | 0 | 0 | 60 | 100 | PPI activity GR80, SASKR (SASKR (russian thistle)): 30 g/ha; inhibition at 10 g/ha [3, 4]: 100%; inhibition at 30 g/ha [3, 4]: 100%; inhibition at 100 g/ha ([3]; Lamium purpureum, weed, PPI application, 100 g/ha, read-out: Percent inhibition LAMPU): 100%; inhibition at 300 g/ha [3, 4]: 100%; inhibition at 900 g/ha [3, 4]: 100%; PPI activity GR80, LAMPU [3]: 30 g/ha
C=C(C)CC(F)(F)S(=O)(=O)c1ncn(C(=O)N(CC)CC)n1 [Example 18] | 300 g/ha | 300 | 30 | 30 | 100 | 100 | 100 | 100 | 30 | 0 | 0 | 0 | 100 | 100 | 100 | 0 | 0 | 80 | 80 | 100 | PPI activity GR80, SASKR (SASKR (russian thistle)): 30 g/ha; inhibition at 10 g/ha [3, 4]: 0%; inhibition at 30 g/ha [3, 4]: 0%; inhibition at 300 g/ha [3, 4]: 0%; inhibition at 900 g/ha [3, 4]: 70%; PPI activity GR80, LAMPU [3]: 10 g/ha
C=C(Br)CC(F)(F)S(=O)(=O)c1ncn(C(=O)N(CC)CC)n1 [Example 19] | * (activity observed, at least at highest rate, but <80% inhibition) | 300 | 10 | 20 | 20 | 100 | 100 | 100 | 30 | 0 | 0 | 30 | 100 | 100 | 300 | 0 | 0 | 0 | 60 | 95 | PPI activity GR80, SASKR (SASKR (russian thistle)): 30 g/ha; inhibition at 10 g/ha [3, 4]: 0%; inhibition at 30 g/ha [3, 4]: 0%; inhibition at 300 g/ha [3, 4]: 0%; inhibition at 900 g/ha [3, 4]: 99%; PPI activity GR80, LAMPU [3]: 100 g/ha
